We go through 39 compounds from patent publication US12516016B2, “GPX4 inhibitors, pharmaceutical compositions thereof, and their use for treating GPX4-mediated diseases” (EUBULUS BIOTHERAPEUTICS (HONG KONG) LIMITED, priority 2020, dated 2026).

The structures appear in SMILES notation.

The test deals with hepatocellular carcinoma cell line Hub-7. Briefly: Cell proliferation assay (CELL-TITER GLO cell viability). The note with it: 24 h, Hub-7 cells, 24 h incubation, read-out: Inhibition of Cell Proliferation EC50. The format is cell-based. In a few lines: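 […] cells (4,000/well) seeded overnight, then exposed 24 h to compound from 10 μM in 3-fold serial dilutions. Viability read by CELL-TITER GLO luminescence; EC50 values derived.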
Consider `C#CC(=O)N(c1ccc2c(cnn2C)c1)C1(C(=O)NCc2ccccc2)CCCOC1` (stereo not drawn) [A176, N-Benzyl-3-(N-(1-methyl-1H-indazol-5-yl)propiolamido)tetrahydro-2H-pyran-3-carboxamide], for which the EC50 is no more than 100 nM.

As for `C#CC(=O)N(c1ccc(OC)c(Cl)c1)C(C(=O)NCc1ccccc1)c1cccc(N)c1` (stereo not drawn) [A34, N-(1-(3-Aminophenyl)-2-(benzylamino)-2-oxoethyl)-N-(3-chloro-4-methoxy-phenyl)propiolamide], the EC50 is no more than 100 nM.

As for `C#CC(=O)N(c1ccc2c(cnn2C)c1)C1(C(=O)NCc2ccccc2)CCC(=O)CC1` [A164, N-Benzyl-1-(N-(1-methyl-1H-indazol-5-yl)propiolamido)-4-oxocyclohexane-1-carboxamide], the EC50 was no more than 100 nM. For `C#CC(=O)N(c1cccc(Cl)c1)C(C(=O)NCc1ccccc1)c1cccs1` (stereo not drawn) [A75, N-(2-(Benzylamino)-2-oxo-1-(thiophen-2-yl)ethyl)-N-(3-chlorophenyl)-propiolamide] the value was no more than 100 nM; for `C#CC(=O)N(c1cccc2nsnc12)C(C(=O)NCc1ccccc1)c1ccccc1` (stereo not drawn) [A85, N-(Benzo[c][1,2,5]thiadiazol-4-yl)-N-(2-(benzylamino)-2-oxo-1-phenylethyl)-propiolamide], no more than 100 nM; for `C#CC(=O)N(c1ccc(CO)cc1)C(C(=O)NC(C)(C)C)c1cccc(N)c1` (stereo not drawn) [A26, N-(1-(3-Aminophenyl)-2-(tert-butylamino)-2-oxoethyl)-N-(4-(hydroxymethyl)-phenyl)propiolamide], 2000 to 10000 nM. For `C#CC(=O)N(c1cccc(Cl)c1)C(C(=O)NCc1ccccc1)c1cccc(CCO)c1` (stereo not drawn) [A95, N-(2-(Benzylamino)-1-(3-(2-hydroxyethyl)phenyl)-2-oxoethyl)-N-(3-chloro-phenyl)propiolamide] the value was 100 to 500 nM. As for `C#CC(=O)N(c1ccc(OC)c(Cl)c1)C(C(=O)NCc1ccccc1)c1ccccc1` (stereo not drawn) [A93, N-(2-(Benzylamino)-2-oxo-1-phenylethyl)-N-(3-chloro-4-methoxyphenyl)-propiolamide], the figure is no more than 100 nM; as for `C#CC(=O)N(c1ccc(NS(C)(=O)=O)cc1)C(C(=O)NC(C)(C)C)c1cccc(N)c1` (stereo not drawn) [A24, N-(1-(3-Aminophenyl)-2-(tert-butylamino)-2-oxoethyl)-N-(4-(methyl-sulfonamido)phenyl)propiolamide], greater than 10000 nM; as for `Nc1ccc(N(C(=O)CCl)C(C(=O)NCCc2ccccc2)c2cccs2)cc1` (stereo not drawn) [C2, N-(4-Aminophenyl)-2-chloro-N-(2-oxo-2-(phenethylamino)-1-(thiophen-2-yl)-ethyl)acetamide], 2000 to 10000 nM.

With `CC#CC(=O)N(c1cccc(Cl)c1)C(C(=O)NCc1ccccc1)c1ccccc1` (stereo not drawn) [A117, N-(2-(Benzylamino)-2-oxo-1-phenylethyl)-N-(3-chlorophenyl)but-2-ynamide], the EC50 is greater than 10000 nM. As to `C#CC(=O)N(c1cccc(Cl)c1)C(C(=O)NCc1ccccc1)c1cccc(OCC(=O)OC)c1` (stereo not drawn) [A83, Methyl 2-(3-(2-(benzylamino)-1-(N-(3-chlorophenyl)propiolamido)-2-oxoethyl)-phenoxy)acetate], the EC50 was in the range of 100 to 500 nM. As for `C#CC(=O)N(c1ccc(C(=O)OC)cc1)C(C(=O)NCc1ccccc1)c1cccc(N)c1` (stereo not drawn) [A49, Methyl 4-(N-(1-(3-aminophenyl)-2-(benzylamino)-2-oxoethyl)propiolamido)-benzoate], the figure is no more than 100 nM; as for `C#CC(=O)N(c1cccc2cnn(C)c12)C(C(=O)NCc1ccccc1)c1ccccc1` (stereo not drawn) [A160, N-(2-(Benzylamino)-2-oxo-1-phenylethyl)-N-(1-methyl-1H-indazol-7-yl)propiolamide], no more than 100 nM. For `CCC(=O)N(c1cccc(Cl)c1)C(C(=O)NCc1ccccc1)c1ccc(N)cc1` (stereo not drawn) [D4, N-(1-(4-Aminophenyl)-2-(benzylamino)-2-oxoethyl)-N-(3-chlorophenyl)-propionamide] the value was greater than 10000 nM; for `C#CC(=O)N(c1cc(Cl)ccc1F)C(C(=O)NCc1ccccc1)c1ccc(N)cc1` (stereo not drawn) [A57, N-(1-(4-Aminophenyl)-2-(benzylamino)-2-oxoethyl)-N-(5-chloro-2-fluoro-phenyl)propiolamide], no more than 100 nM.

As to `C#CC(=O)N(c1cccc(Cl)c1)C(C(=O)NCc1ccccc1)c1ccc(F)cc1` (stereo not drawn) [A87, N-(2-(Benzylamino)-1-(4-fluorophenyl)-2-oxoethyl)-N-(3-chlorophenyl)-propiolamide], the EC50 was no more than 100 nM.

In the case of `CC(Cl)C(=O)N(c1ccc2c(cnn2C)c1)C1(C(=O)NCc2ccccc2)CCOCC1` (stereo not drawn) [C24, N-Benzyl-4-(2-chloro-N-(1-methyl-1H-indazol-5-yl)propanamido)tetrahydro-2H-pyran-4-carboxamide], the EC50 is greater than 10000 nM. With `COC(=O)c1cccc(N(C(=O)CCl)C(C(=O)NCCc2ccccc2)c2ccc([N+](=O)[O-])cc2)c1` (stereo not drawn) [C7, Methyl-3-(2-chloro-N-(1-(4-nitrophenyl)-2-oxo-2-(phenethylamino)ethyl)-acetamido)benzoate], the EC50 fell in the range of 100 to 500 nM.

In the case of `C#CC(=O)N(c1cccc(Cl)c1)C(C(=O)NC(C)(C)C)c1cccc(N)c1` (stereo not drawn) [A20, N-(1-(3-aminophenyl)-2-(tert-butylamino)-2-oxoethyl)-N-(3-chlorophenyl)propiolamide], the EC50 is 100 to 500 nM. For `C#CC(=O)N(c1ccc2nsnc2c1)C(C(=O)NCc1ccccc1)c1ccccc1` (stereo not drawn) [A94, N-(Benzo[c][1,2,5]thiadiazol-5-yl)-N-(2-(benzylamino)-2-oxo-1-phenylethyl)-propiolamide] the value was no more than 100 nM; for `C#CC(=O)N(c1ccc(Cl)c(Cl)c1)C(C(=O)NCc1ccccc1)c1ccc(N)cc1` (stereo not drawn) [A65, N-(1-(4-Aminophenyl)-2-(benzylamino)-2-oxoethyl)-N-(3,4-dichlorophenyl)-propiolamide], no more than 100 nM.

Consider `C#CC(=O)N(c1cccc(Cl)c1)C(C(=O)NCc1ccccc1)C1CCOCC1` (stereo not drawn) [A78, N-(2-(Benzylamino)-2-oxo-1-(tetrahydro-2H-pyran-4-yl)ethyl)-N-(3-chloro-phenyl)propiolamide], for which the EC50 was 500 to 2000 nM.

Consider `C#CC(=O)N(c1cccc(Cl)c1)C1(C(=O)NCc2ccccc2)CCCC(O)C1` (stereo not drawn) [A171, N-Benzyl-1-(N-(3-chlorophenyl)propiolamido)-3-hydroxycyclohexane-carboxamide], for which the EC50 was in the range of 2000 to 10000 nM. As for `C#CC(=O)N(c1cccc(-c2cc[nH]n2)c1)C(C(=O)NCc1ccccc1)c1ccccc1` (stereo not drawn) [A134, N-(3-(1H-Pyrazol-3-yl)phenyl)-N-(2-(benzylamino)-2-oxo-1-phenylethyl)-propiolamide], the figure is no more than 100 nM. As for `C#CC(=O)N(c1cccc(S(N)(=O)=O)c1)C(C(=O)NC(C)(C)C)c1ccc(N)cc1` (stereo not drawn) [A2, N-(1-(4-aminophenyl)-2-(tert-butylamino)-2-oxoethyl)-N-(3-sulfamoylphenyl)propiolamide], the figure is greater than 10000 nM; as for `C#CC(=O)N(c1ccn2cnnc2c1)C1(C(=O)NCc2ccccc2)CCOCC1` [A163, 4-(N-([1,2,4]Triazolo[4,3-a]pyridin-7-yl)propiolamido)-N-benzyltetrahydro-2H-pyran-4-carboxamide], 500 to 2000 nM; as for `C#CC(=O)N(c1cccc(Cl)c1)[C@]1(C(=O)NCc2ccccc2)CC[C@H](O)CC1` [A110, (1S,4S)—N-Benzyl-1-(N-(3-chlorophenyl)propiolamido)-4-hydroxycyclohexane-carboxamide], 100 to 500 nM. For `C#CC(=O)N(c1ccc2[nH]ncc2c1)C1(C(=O)NCc2ccccc2)CCOCC1` [A150, 4-(N-(1H-Indazol-5-yl)propiolamido)-N-benzyltetrahydro-2H-pyran-4-carboxamide], the EC50 lay within 100 to 500 nM. For `C#CC(=O)N(c1cccc(Cl)c1)C(C(=O)NC(C)(C)C)c1ccc(N)cc1` (stereo not drawn) [A5, N-(1-(4-Aminophenyl)-2-(tert-butylamino)-2-oxoethyl)-N-(3-chlorophenyl)-propiolamide] the value was 100 to 500 nM; for `C#CC(=O)N(c1ccccc1N1CCOCC1)C1(C(=O)NCc2ccccc2)CCOCC1` [A139, N-Benzyl-4-(N-(2-morpholinophenyl)propiolamido)tetrahydro-2H-pyran-4-carboxamide], no more than 100 nM; for `CC(=O)N(c1ccc2c(cnn2C)c1)C1(C(=O)NCc2ccccc2)CCCOC1` (stereo not drawn) [D2, N-Benzyl-3-(N-(1-methyl-1H-indazol-5-yl)acetamido)tetrahydro-2H-pyran-3-carboxamide], greater than 10000 nM.

`C#CC(=O)N(c1cc(Cl)ccc1I)C(C(=O)NCc1ccccc1)c1ccccc1` (stereo not drawn) [A91, N-(2-(Benzylamino)-2-oxo-1-phenylethyl)-N-(5-chloro-2-iodophenyl)-propiolamide]: the EC50 was no more than 100 nM. For `C#CC(=O)N(c1ccc(O)cc1)C(C(=O)NCc1ccccc1)c1cccc(N)c1` (stereo not drawn) [A45, N-(1-(3-Aminophenyl)-2-(benzylamino)-2-oxoethyl)-N-(4-hydroxyphenyl)-propiolamide] the value was 2000 to 10000 nM; for `C#CC(=O)N(c1ccc(S(N)(=O)=O)cc1)C(C(=O)NCc1ccccc1)c1ccc(N)cc1` (stereo not drawn) [A68, N-(1-(4-Aminophenyl)-2-(benzylamino)-2-oxoethyl)-N-(4-sulfamoylphenyl)-propiolamide], greater than 10000 nM; for `Cn1ncc2cc(N(C(=O)CCl)C3(C(=O)NCc4ccccc4)CCOCC3)ccc21` [C21, N-Benzyl-4-(2-chloro-N-(1-methyl-1H-indazol-5-yl)acetamido)tetrahydro-2H-pyran-4-carboxamide], 500 to 2000 nM.

On to `Nc1ccc(C(C(=O)NCCc2ccccc2)N(C(=O)CCl)c2cccc(Cl)c2)cc1` (stereo not drawn) [C6, 2-chloro-N-(3-chlorophenyl)-N-(1-(4-aminophenyl)-2-oxo-2-(phenethylamino)ethyl)acetamide], for which the EC50 fell in the range of 500 to 2000 nM.

As for `C#CC(=O)N(c1ccc(OC)c(Cl)c1)C(C(=O)NC(C)(C)C)c1ccc(N)cc1` (stereo not drawn) [A3, N-(1-(4-Aminophenyl)-2-(tert-butylamino)-2-oxoethyl)-N-(3-chloro-4-methoxy-phenyl)propiolamide], the EC50 was no more than 100 nM. As for `C#CC(=O)N(c1ccc2c(cnn2C)c1)C1(C(=O)NCc2ccccc2)CCOCC1` [A162, N-Benzyl-4-(N-(1-methyl-1H-indazol-5-yl)propiolamido)tetrahydro-2H-pyran-4-carboxamide], the figure is no more than 100 nM.
